In patent publication US4698352A, “4-oxo-1,4-dihydronicotinic acid derivatives, salts thereof, and antibacterial agents containing the same” (Toyama Chemical Co., Ltd., priority 1982, dated 1987) one finds MIC data, which are given here for four molecules.

Each structure is given as a SMILES string. Values after ≈ are worked out from the molar mass of the structure shown. Where two headings read alike, the source gives them in different places.

What all share (experiment): Antibacterial activity (MIC), agar dilution
Holding throughout (type): cell-based
For orientation: Agar dilution tests growth on a series of plates holding different concentrations.

Test [1] concerns Pro. vulgaris GN76**. As to conditions: Proteus vulgaris. The text has this: (§1) The amount of bacteria inoculated was 10^4 cells per plate (10^6 cells per ml).
(§2) ** Cephalospolinase-producing bacteria

Test [2] concerns Ps. aeruginosa GN918**. Particulars: Pseudomonas aeruginosa, Ps. aeruginosa GN918, cephalospolinase-producing, 10^6 cells per ml.
Source text: as §1, §2

Test [3] relates to E. coli GN5482**. Particulars: Escherichia coli, 20 h; E. coli GN5482, cephalospolinase-producing; 10^6 cells per ml; read-out: MIC.
Source text: as §1, §2

Test [4] deals with E. coli NIHJ JC-2. Particulars: Escherichia coli, NIHJJC2, 20 h.
Source text: as §1

Test [5] deals with Pro. mirabilis T-111. Particulars: Proteus mirabilis, 37° C.
Source text: as §1

Test [6] has as its system Ent. cloacae IID977. Particulars: Enterobacter cloacae, IID977, 20 h.
Source text: as §1

Test [7] deals with Aci. antitratus A-6. As to conditions: 20 h.
Source text: as §1

Test [8] has as its system Ps. aeruginosa S-68. As to conditions: Pseudomonas aeruginosa.
Source text: as §1

The test system of test [9] is Pro. vulgaris GN3027. As to conditions: Proteus vulgaris, GN3027, 20 h, Pro. vulgaris GN3027; 10^6 cells per ml; 37° C., 20 hours; read-out: MIC.
Source text: as §1

The subject of test [10] is E. coli TK-111. As to conditions: Escherichia coli, TK111, 20 h.
Source text: as §1

The test system of test [11] is Kl. pneumoniae Y-41. Particulars: Klebsiella pneumoniae, Y41, 10^6 cells per ml, 37° C., 20 hours, read-out: MIC.
Source text: as §1

For test [12], the system named is Pro. morganii T-216. As to conditions: Morganella morganii, T216, 10^6 cells per ml, 37° C., 20 hours, read-out: MIC.
Source text: as §1

Test [13] concerns Kl. pneumoniae Y-50. Particulars: Klebsiella pneumoniae, Y50, 20 h, 10^6 cells per ml, 37° C., read-out: MIC.
Source text: as §1

Test [14] concerns Ps. aeruginosa IFO3445. As to conditions: Pseudomonas aeruginosa.
Source text: as §1

Test [15] has as its system St. aureus FDA209P. Particulars: Staphylococcus aureus, FDA209P, 20 h.
Source text: as §1

In test [16] the test system is St. aureus F-137*. As to conditions: Staphylococcus aureus, 20 h.
Source text: as §1
(§3) * Penicillinase-producing bacteria

Test [17] deals with Kl. pneumoniae Y-4*. As to conditions: Klebsiella pneumoniae, 20 h, Kl. pneumoniae Y-4, penicillinase-producing; 10^6 cells per ml; read-out: MIC.
Source text: as §1, §3

The test system of test [18] is Ps. aeruginosa GN3379*. Particulars: Pseudomonas aeruginosa, Ps. aeruginosa GN3379, penicillinase-producing, 10^6 cells per ml.
Source text: as §1, §3

In test [19] the test system is E. coli TK-3*. Particulars: Escherichia coli, 20 h.
Source text: as §1, §3

[20] abbreviates: E. coli NIHJ JC-2, 10^6 cells per ml, 37° C., 20 hours, read-out: MIC.
[21] abbreviates: T111, 10^6 cells per ml, 20 hours, read-out: MIC.
[22] abbreviates: Ent. cloacae IID977, 10^6 cells per ml, 37° C., 20 hours, read-out: MIC.
[23] abbreviates: S68, Ps. aeruginosa S-68, 10^6 cells per ml, 37° C., 20 hours, read-out: MIC.
Where [24] appears, read: E. coli TK-111, 10^6 cells per ml, 37° C., 20 hours, read-out: MIC.
[25] abbreviates: Ps. aeruginosa IFO3445, 10^6 cells per ml, 37° C., 20 hours, read-out: MIC.
[26] abbreviates: St. aureus FDA209P, 10^6 cells per ml, 37° C., 20 hours, read-out: MIC.
The mark [27] stands for this setting: St. aureus F-137, penicillinase-producing, 10^6 cells per ml, read-out: MIC.
The mark [28] stands for this setting: 20 h, Pro. vulgaris GN76, cephalospolinase-producing, 10^6 cells per ml, read-out: MIC.
Where [29] appears, read: Aci. antitratus A-6, 10^6 cells per ml, 37° C., 20 hours, read-out: MIC.

As usually defined, the MIC is the lowest concentration found to suppress growth. On to `CN(C)c1ccc(-c2cc(=O)c(C(=O)O)cn2-c2ccc(OS(=O)(=O)O)cc2)cc1`, for which the MIC in test [1] (GN76, 20 h) turned out to be 3.13 µg/mL (≈ 7.27 µM); in test [2] (20 h, read-out: MIC), 12.5 µg/mL (≈ 29 µM); in test [3], 0.2 µg/mL (≈ 0.465 µM); in [4] (setting [20]), 1.56 µg/mL (≈ 3.62 µM); in test [5] (setting [21]), 25 µg/mL (≈ 58.1 µM); in test [6] (setting [22]), 12.5 µg/mL (≈ 29 µM). Further, the minimal inhibitory concentration (MIC) in [7] was found to be 3.13 µg/mL (≈ 7.27 µM); in test [8] (setting [23]), 25 µg/mL (≈ 58.1 µM); in test [9], 1.56 µg/mL (≈ 3.62 µM); in [10] (setting [24]), 0.78 µg/mL (≈ 1.81 µM); in [11], 25 µg/mL (≈ 58.1 µM); in test [12], 12.5 µg/mL (≈ 29 µM). Besides, the MIC is 3.13 µg/mL (≈ 7.27 µM) in test [13]; 50 µg/mL (≈ 116 µM) in test [14] (setting [25]); 0.78 µg/mL (≈ 1.81 µM) in [15] (setting [26]); 3.13 µg/mL (≈ 7.27 µM) in test [16]; 25 µg/mL (≈ 58.1 µM) in test [17]; 50 µg/mL (≈ 116 µM) in test [18] (20 h, read-out: MIC). In addition, the minimal inhibitory concentration (MIC) in [19] (E. coli TK-3, penicillinase-producing, 10^6 cells per ml, read-out: MIC) was 6.25 µg/mL (≈ 14.5 µM).
`O=C(O)c1cn(-c2ccc(O)cc2)c(C2CC=CCC2)cc1=O` (centres unmarked): the MIC in [1] (GN76, 20 h) is 1.56 µg/mL (≈ 5.01 µM); in test [2] (GN918, 20 h) it was 1.56 µg/mL (≈ 5.01 µM); in test [3], 0.39 µg/mL (≈ 1.25 µM); in test [4], 6.25 µg/mL (≈ 20.1 µM); in test [5] (T111, 20 h, 10^6 cells per ml), 12.5 µg/mL (≈ 40.1 µM); in test [6], 6.25 µg/mL (≈ 20.1 µM). The minimum inhibitory concentration (MIC) in test [7] is 6.25 µg/mL (≈ 20.1 µM); in test [8] (S68, 20 h), 12.5 µg/mL (≈ 40.1 µM); in [9], 0.39 µg/mL (≈ 1.25 µM); in test [10], 1.56 µg/mL (≈ 5.01 µM); in test [11] it was 6.25 µg/mL (≈ 20.1 µM); in test [12], 3.13 µg/mL (≈ 10.1 µM). In addition, the MIC in test [13] is 1.56 µg/mL (≈ 5.01 µM); in test [14] (IFO3445, 20 h), 12.5 µg/mL (≈ 40.1 µM); in test [15], 1.56 µg/mL (≈ 5.01 µM); in [16] (setting [27]), 3.13 µg/mL (≈ 10.1 µM); in [17], 12.5 µg/mL (≈ 40.1 µM); in [18] (20 h, read-out: MIC), 25 µg/mL (≈ 80.3 µM). The same molecule returned an MIC in test [19] of 6.25 µg/mL (≈ 20.1 µM).
On to `O=C(O)c1cn(-c2ccc(O)cc2F)c(-c2ccc(N3CCCC3)cc2)cc1=O`, for which the MIC in [1] (setting [28]) was 0.78 µg/mL (≈ 1.98 µM); in test [2] (20 h, read-out: MIC), 0.78 µg/mL (≈ 1.98 µM); in test [3], not above 0.05 µg/mL; in test [4] (setting [20]), 0.2 µg/mL (≈ 0.507 µM); in test [5] (setting [21]), 0.78 µg/mL (≈ 1.98 µM); in [6] (setting [22]), 0.78 µg/mL (≈ 1.98 µM). Moreover, the MIC was not above 0.05 µg/mL in test [7] (setting [29]); 3.13 µg/mL (≈ 7.94 µM) in test [8] (S68, 20 h); 0.2 µg/mL (≈ 0.507 µM) in test [9]; not above 0.05 µg/mL in [10] (setting [24]); 1.56 µg/mL (≈ 3.96 µM) in test [11]; 0.78 µg/mL (≈ 1.98 µM) in [12]. The minimal inhibitory concentration (MIC) in [13] was 0.39 µg/mL (≈ 0.989 µM); in [14] (setting [25]), 6.25 µg/mL (≈ 15.8 µM); in [15] (setting [26]) it was not above 0.05 µg/mL; in test [16] (setting [27]), not above 0.05 µg/mL; in [17], 3.13 µg/mL (≈ 7.94 µM); in test [18] (GN3379, 20 h), 3.13 µg/mL (≈ 7.94 µM).
Regarding `O=C(O)c1cn(-c2ccc(O)cc2)c(-c2ccc3occc3c2)cc1=O`, the minimum inhibitory concentration (MIC) was 0.78 µg/mL (≈ 2.25 µM) in test [1] (setting [28]); 1.56 µg/mL (≈ 4.49 µM) in [2] (GN918, 20 h); not above 0.05 µg/mL in test [3]; 0.39 µg/mL (≈ 1.12 µM) in [4] (setting [20]); 3.13 µg/mL (≈ 9.01 µM) in test [5] (T111, 20 h, 10^6 cells per ml); 0.78 µg/mL (≈ 2.25 µM) in test [6] (setting [22]). Also, the minimal inhibitory concentration (MIC) is 0.78 µg/mL (≈ 2.25 µM) in test [7] (setting [29]); 6.25 µg/mL (≈ 18 µM) in test [8] (setting [23]); not above 0.05 µg/mL in test [9]; 0.2 µg/mL (≈ 0.576 µM) in [10] (setting [24]); 1.56 µg/mL (≈ 4.49 µM) in [11]; 0.78 µg/mL (≈ 2.25 µM) in test [12]. Besides, the MIC in [13] stood at 0.39 µg/mL (≈ 1.12 µM); in test [14] (setting [25]) it was 12.5 µg/mL (≈ 36 µM); in test [15] (setting [26]), 0.2 µg/mL (≈ 0.576 µM); in [16] (setting [27]), 0.39 µg/mL (≈ 1.12 µM); in [17], 3.13 µg/mL (≈ 9.01 µM); in test [18] (20 h, read-out: MIC), 6.25 µg/mL (≈ 18 µM).
